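In this assay, cells in 96-well plates receive the compound at five concentrations for 48 hours. Endpoints are linearly interpolated between the surrounding concentrations. GI50 marks 50% less growth. At the TGI there is no net growth.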
How the values were obtained:
Experiment in all cases: growth of human tumour cells (NCI), 48 h
[1] = tested on: U251 CNS
[2] = tested on: KM12 colon
[3] = tested on: OVCAR-5 ovarian
[4] = tested on: 786-0 renal
[5] = tested on: OVCAR-3 ovarian
[6] = tested on: UO-31 renal
[7] = tested on: SK-MEL-5 melanoma
[8] = tested on: A498 renal
[9] = tested on: SNB-75 CNS
[10] = tested on: SF-268 CNS
[11] = tested on: SK-OV-3 ovarian
[12] = tested on: HCC-2998 colon
[13] = tested on: RXF 393 renal
[14] = tested on: SW-620 colon
[15] = tested on: MDA-MB-435
[16] = tested on: PC-3 prostate
[17] = tested on: MDA-MB-231 breast
[18] = tested on: BT-549 breast

SMILES	TGI [1]	TGI [2]	TGI [3]	TGI [4]	TGI [5]	TGI [6]	TGI [7]	TGI [8]	TGI [9]	GI50 [10]	TGI [10]	GI50 [11]	TGI [11]	TGI [12]	TGI [13]	TGI [14]	TGI [15]	TGI [16]	TGI [17]	TGI [18]
COc1ccc(/C=C\c2cc(OC)c(OC)c(OC)c2)cc1	1.25 µM	> 100 µM	90.8 µM	> 100 µM	0.000152 µM	8.66 µM	14.5 µM	13.2 µM	0.000932 µM	0.0443 µM	> 100 µM	99.3 µM	> 100 µM	–	–	–	–	–	–	–
CCCNCCCCC(NC(C)=O)C(=O)NCc1ccccc1 (configuration not stated)	> 100 µM	> 100 µM	> 100 µM	> 100 µM	> 100 µM	> 100 µM	> 100 µM	> 100 µM	> 100 µM	–	> 100 µM	–	> 100 µM	> 100 µM	> 100 µM	> 100 µM	–	–	–	–
Cc1ccc(C(=O)Oc2ccccc2)cc1N=NN(C)C	> 100 µM	> 100 µM	> 100 µM	> 100 µM	> 100 µM	> 100 µM	> 100 µM	–	–	–	> 100 µM	–	> 100 µM	> 100 µM	–	> 100 µM	> 100 µM	> 100 µM	> 100 µM	> 100 µM
COc1ccc(C2Cc3cc(OC)c(OC)c(OC)c3C2)cc1 (configuration not stated)	> 100 µM	> 100 µM	> 100 µM	> 100 µM	> 100 µM	64.8 µM	31.3 µM	> 100 µM	84.8 µM	–	> 100 µM	–	> 100 µM	> 100 µM	–	> 100 µM	–	–	–	–
CN1CCc2ccccc2C(C(=O)c2ccc3c(c2)OCO3)C1=O (configuration not stated)	> 100 µM	> 100 µM	–	> 100 µM	> 100 µM	> 100 µM	> 100 µM	> 100 µM	> 100 µM	–	> 100 µM	–	> 100 µM	–	> 100 µM	> 100 µM	–	–	–	–
CCSC1=N/C(=C\c2ccco2)C(=O)N1	> 100 µM	> 100 µM	> 100 µM	> 100 µM	> 100 µM	> 100 µM	> 100 µM	> 100 µM	> 100 µM	–	> 100 µM	–	> 100 µM	–	–	> 100 µM	> 100 µM	> 100 µM	> 100 µM	–
CCCCOC/N=C(/N)NC#N	> 100 µM	> 100 µM	> 100 µM	> 100 µM	> 100 µM	> 100 µM	> 100 µM	> 100 µM	> 100 µM	–	> 100 µM	–	> 100 µM	> 100 µM	> 100 µM	34.3 µM	–	–	–	–
COC(=O)c1ccc2c(c1)CC1(C2)Cc2ccccc2C1=O (configuration not stated)	> 100 µM	–	> 100 µM	> 100 µM	> 100 µM	> 100 µM	32.6 µM	> 100 µM	67.3 µM	–	> 100 µM	–	> 100 µM	> 100 µM	> 100 µM	> 100 µM	58.5 µM	> 100 µM	84.8 µM	–

Source: PubChem BioAssay (NCI)
